pKd: −log10 of the molar value.

The target of experiment [1] is CLC-ec1 (Escherichia coli, UniProt P37019). The experiment can be described thus: biochemical.
Experiment [2] concerns the target CLC-ec1 (Escherichia coli, UniProt P37019, E148A). The experiment can be described thus: biochemical.

Sequence of CLC-ec1 (Escherichia coli, UniProt P37019) (P37019 whole entry): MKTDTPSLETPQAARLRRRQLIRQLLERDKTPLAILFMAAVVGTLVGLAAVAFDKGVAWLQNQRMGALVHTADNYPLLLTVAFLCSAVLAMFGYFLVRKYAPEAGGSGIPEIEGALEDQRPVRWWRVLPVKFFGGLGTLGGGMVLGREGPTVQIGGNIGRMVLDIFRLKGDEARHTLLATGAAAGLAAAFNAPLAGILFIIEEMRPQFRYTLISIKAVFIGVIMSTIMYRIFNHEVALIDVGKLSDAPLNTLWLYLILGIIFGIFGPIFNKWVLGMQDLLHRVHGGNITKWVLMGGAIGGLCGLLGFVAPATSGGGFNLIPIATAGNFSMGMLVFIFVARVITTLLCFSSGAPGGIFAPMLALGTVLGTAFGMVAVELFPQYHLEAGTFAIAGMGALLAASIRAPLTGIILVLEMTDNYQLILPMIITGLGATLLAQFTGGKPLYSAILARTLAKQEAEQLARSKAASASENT
Sequence of CLC-ec1 (Escherichia coli, UniProt P37019, E148A) (P37019 whole entry E148A): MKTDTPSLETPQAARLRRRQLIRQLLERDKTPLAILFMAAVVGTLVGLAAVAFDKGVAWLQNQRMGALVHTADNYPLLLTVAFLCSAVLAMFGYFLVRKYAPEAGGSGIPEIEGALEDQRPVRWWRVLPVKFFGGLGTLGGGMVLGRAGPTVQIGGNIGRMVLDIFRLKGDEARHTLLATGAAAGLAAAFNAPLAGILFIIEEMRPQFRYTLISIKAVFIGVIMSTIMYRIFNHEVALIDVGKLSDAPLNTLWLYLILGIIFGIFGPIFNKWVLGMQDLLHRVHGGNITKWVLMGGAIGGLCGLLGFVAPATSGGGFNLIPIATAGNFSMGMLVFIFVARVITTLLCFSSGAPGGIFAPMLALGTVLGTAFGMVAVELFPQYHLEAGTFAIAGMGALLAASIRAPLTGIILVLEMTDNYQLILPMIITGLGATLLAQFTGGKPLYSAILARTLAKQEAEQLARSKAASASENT

In general, pKd refers to −log10 of the Kd, conventionally taken in molar units. Turning to `Cl` [Cl^−], the negative logarithm of the Kd (pKd) on CLC-ec1 [1] is 3.22. On to `F` [F^−], for which the negative-log Kd (pKd) is 3.74 on CLC-ec1 [2] and 3.00 on CLC-ec1 [1].

(Values after article PMC3805709 (Nature chemical biology, 2013).)
